Here are results for 25 compounds from patent US20100280024A1, “RENIN INHIBITORS” (priority 2007, published 2010).

Counter-ions that a name gives are not always drawn.

The assay has as its target T1, Renin (Homo sapiens, UniProt P00797).
T1 sequence (P00797 67-406): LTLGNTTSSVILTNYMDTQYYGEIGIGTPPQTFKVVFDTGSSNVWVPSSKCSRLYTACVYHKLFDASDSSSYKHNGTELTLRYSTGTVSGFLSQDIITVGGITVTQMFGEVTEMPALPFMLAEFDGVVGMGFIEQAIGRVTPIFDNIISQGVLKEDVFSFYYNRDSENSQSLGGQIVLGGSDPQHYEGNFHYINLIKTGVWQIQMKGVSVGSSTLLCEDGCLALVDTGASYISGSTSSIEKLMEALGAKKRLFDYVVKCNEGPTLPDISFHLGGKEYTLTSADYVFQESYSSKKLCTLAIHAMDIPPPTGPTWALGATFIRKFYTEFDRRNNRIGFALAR
Briefly: In-vitro renin inhibition assay (modified Cayman renin inhibitor screening assay, fluorescence). Details: purchased Cayman 10006270. The note with it: 37° C., 30 mins; for inhibition at 0.1 µM: read-out: Renin inhibition (percent inhibition of renin activity) at 0.1 μM; for inhibition at 1 µM: compound concentration 1 μM, read-out: Renin inhibition (percent inhibition of renin activity) at 1 μM. It counts as biochemical. On the procedure: In-Vitro Renin Inhibition Assay
The enzymatic in vitro assay was performed in 96 well polypropylene plate (Nunc), using a modified Renin inhibitor screening assay protocol (Cayman, cat no: 10006270). The reaction system comprised assay buffer containing 50 mM Tris-HCL, pH=8.0 & 100 mM sodium chloride, human recombinant renin (1:20 diluted with fixed activity), synthetic renin substrates (9.5 μM) and different concentrations of renin inhibitors in DMSO in a total reaction system of 100 μl. The entire incubation mixture were incubated at 37° C. for 30 mins and the fluorescence was read in kinetic mode using excitation wavelengths of 335-345 nm and emission wavelengths of 485-510 nm. Enzyme inhibition was determined by percent inhibition of renin activity.

By inhibition is commonly meant the change of the read-out against control, counted positive when it falls. Take `NCC(Cc1ccc(OCCOc2c(F)cccc2F)cc1)C(=O)N1CCCc2cc(C(F)(F)F)ccc21` (stereo not drawn) [Example 34, 3-Amino-2-{4-[2-(2,6-difluoro-phenoxy)-ethoxy]-benzyl}-1-(6-trifluoromethyl-3,4-dihydro-2H-quinolin-1-yl)-propan-1-one hydrochloride]: the inhibition at 0.1 µM (compound concentration 0.1 μM) turned out to be 31.2%.

For the compound `Cc1cc(Cl)c(OCCOc2ccc(CC(CN)C(=O)N3CCCc4ccccc43)cn2)c(Cl)c1` (stereo not drawn) [Example 43, 2-Aminomethyl-3-{6-[2-(2,6-dichloro-4-methyl-phenoxy)-ethoxy]-pyridin-3-yl}-1-(3,4-dihydro-2H-quinolin-1-yl)-propan-1-one], the inhibition at 1 µM was 64.2%.

As for `Cc1cc(Cl)c(OCCCOc2ccc(CC(CN)C(=O)N3CCCc4ccccc43)cc2)c(Cl)c1` (stereo not drawn) [Example 45, 2-Aminomethyl-3-{4-[3-(2,6-dichloro-4-methyl-phenoxy)-propoxy]-phenyl}-1-(3,4-dihydro-2H-quinolin-1-yl)-propan-1-one], the inhibition at 1 µM worked out at 97.1%. For the same compound, the inhibition at 0.1 µM (compound concentration 0.1 μM) turned out to be 18.7%.

Consider `NCC(Cc1ccc(OCCOc2ccc(F)cc2F)cc1)C(=O)N1CCCc2cc(C(F)(F)F)ccc21` (stereo not drawn) [Example 36, 3-Amino-2-{4-[2-(2,4-difluoro-phenoxy)-ethoxy]-benzyl}-1-(6-trifluoromethyl-3,4-dihydro-2H-quinolin-1-yl)-propan-1-one hydrochloride], for which the inhibition at 0.1 µM (compound concentration 0.1 μM) worked out at 45%.

`NCC(Cc1ccc(OCCOc2ccc(Cl)cc2Cl)cc1)C(=O)N1CCCc2cc(F)ccc21` (stereo not drawn) [Example 37, 3-Amino-2-{4-[2-(2,4-dichloro-phenoxy)-ethoxy]-benzyl}-1-(6-fluoro-3,4-dihydro-2H-quinolin-1-yl)-propan-1-one hydrochloride]: the inhibition at 0.1 µM (compound concentration 0.1 μM) turned out to be 36.4%.

As for `Cc1cc(Cl)c(OCCOc2ccc(CC(CN)C(=O)N3CCCc4cc(Cl)cc(Cl)c43)cc2)c(Cl)c1` (stereo not drawn) [Example 14, 3-Amino-1-(6,8-dichloro-3,4-dihydro-2H-quinolin-1-yl)-2-{4-[2-(2,6-dichloro-4-methyl-phenoxy)-ethoxy]-benzyl}-propan-1-one], the inhibition at 1 µM turned out to be 87%. Further, the inhibition at 0.1 µM (compound concentration 0.1 μM) was 41.8%.

In the case of `COc1ccccc1COCCCOc1ccc(CC(CN)C(=O)N2CCCc3cc(C(F)(F)F)ccc32)cc1` (stereo not drawn) [Example 47, 3-Amino-2-{4-[3-(2-methoxy-benzyloxy)-propoxy]-benzyl}-1-(6-trifluoromethyl-3,4-dihydro-2H-quinolin-1-yl)-propan-1-one], the inhibition at 0.1 µM (compound concentration 0.1 μM) was found to be 43.1%.

`COC(=O)[C@H]1CCCN1C(=O)C(CN)Cc1ccc(OCCOc2c(Cl)cc(C)cc2Cl)cc1.Cl` (stereo partly drawn) [Example 29, D-(2-Aminomethyl-3-{4-[2-(2,6-dichloro-4-methyl-phenoxy)-ethoxy]-phenyl}-propionyl)-pyrrolidine-2-carboxylic acid methyl ester hydrochloride]: the “Renin inhibition (percent inhibition of renin activity) at 0.1 μM” value (compound concentration 0.1 μM) is reported as 90.3.

As to `Cc1cc(Cl)c(OCCOc2ccc(CC(CN)C(=O)N3CCCc4cc(F)ccc43)cn2)c(Cl)c1` (stereo not drawn) [Example 44, 3-Amino-2-{6-[2-(2,6-dichloro-4-methyl-phenoxy)-ethoxy]-pyridin-3-ylmethyl}-1-(6-fluoro-3,4-dihydro-2H-quinolin-1-yl)-propan-1-one hydrochloride], the inhibition at 1 µM was determined as 96.3%. Besides, the inhibition at 0.1 µM (compound concentration 0.1 μM) stood at 63.1%.

For the compound `Cc1cc(Cl)c(OCCOc2ccc(CC(CN)C(=O)N3CCCc4cc(Cl)ccc43)cc2)c(Cl)c1` (stereo not drawn) [Example 5, 3-Amino-1-(6-chloro-3,4-dihydro-2H-quinolin-1-yl)-2-{4-[2-(2,6-dichloro-4-methyl-phenoxy)-ethoxy]-benzyl}-propan-1-one], the inhibition at 1 µM came to 79.6%.

As for `Cc1cc(Cl)c(OCCOc2ccc(CC(CN)C(=O)N3CCCc4cc(Br)ccc43)cc2)c(Cl)c1` (stereo not drawn) [Example 6, 3-Amino-1-(6-bromo-3,4-dihydro-2H-quinolin-1-yl)-2-{4-[2-(2,6-dichloro-4-methyl-phenoxy)-ethoxy]-benzyl}-propan-1-one], the inhibition at 1 µM was determined as 86.5%.

For `NCC(Cc1ccc(OCCOc2c(F)cccc2F)cc1)C(=O)N1CCCc2cc(F)ccc21` (stereo not drawn) [Example 35, 3-Amino-2-{4-[2-(2,6-difluoro-phenoxy)-ethoxy]-benzyl}-1-(6-fluoro-3,4-dihydro-2H-quinolin-1-yl)-propan-1-one hydrochloride], where the note is “compound concentration 0.1 μM”, the inhibition at 0.1 µM is 26.3%.

As to `Cc1cc(Cl)c(OCCOc2ccc(CC(CN)C(=O)N3CCC(C)CC3)cc2)c(Cl)c1` (stereo not drawn) [Example 18, 3-Amino-2-{4-[2-(2,6-dichloro-4-methyl-phenoxy)-ethoxy]-benzyl}-1-(4-methyl-piperidin-1-yl)-propan-1-one], the inhibition at 1 µM amounted to 65.8%.

Regarding `COc1cc(CC(CN)C(=O)N2CCCc3ccccc32)ccc1OCCOc1c(Cl)cc(C)cc1Cl` (stereo not drawn) [Example 48, 3-Amino-2-{4-[2-(2,6-dichloro-4-methyl-phenoxy)-ethoxy]-3-methoxy-benzyl}-1-(3,4-dihydro-2H-quinolin-1-yl)-propan-1-one hydrochloride], the inhibition at 1 µM was found to be 58.5%.

As to `Cc1cc(Cl)c(OCCOc2ccc(CC(CN)C(=O)N3CCCc4cc(C)ccc43)cc2)c(Cl)c1` (stereo not drawn) [Example 16, 3-Amino-2-{4-[2-(2,6-dichloro-4-methyl-phenoxy)-ethoxy]-benzyl}-1-(6-methyl-3,4-dihydro-2H-quinolin-1-yl)-propan-1-one], the inhibition at 1 µM is 87.4%. The inhibition at 0.1 µM (compound concentration 0.1 μM) was determined as 52.6%.

Take `NCC(Cc1ccc(OCCOc2ccc(Cl)cc2F)cc1)C(=O)N1CCCc2cc(F)ccc21` (stereo not drawn) [Example 39, 3-Amino-2-{4-[2-(4-chloro-2-fluoro-phenoxy)-ethoxy]-benzyl}-1-(6-fluoro-3,4-dihydro-2H-quinolin-1-yl)-propan-1-one hydrochloride]: the inhibition at 0.1 µM (compound concentration 0.1 μM) was 36.3%.

As to `Cc1cc(Cl)c(OCCOc2ccc(CC(CN)C(=O)N3CCCc4cccc(F)c43)cc2)c(Cl)c1` (stereo not drawn) [Example 11, 3-Amino-2-{4-[2-(2,6-dichloro-4-methyl-phenoxy)-ethoxy]-benzyl}-1-(8-fluoro-3,4-dihydro-2H-quinolin-1-yl)-propan-1-one], the inhibition at 1 µM is 68.5%.

Turning to `NCC(Cc1ccc(OCCOc2ccc(Cl)cc2F)cc1)C(=O)N1CCCc2cc(C(F)(F)F)ccc21` (stereo not drawn) [Example 40, 3-Amino-2-{4-[2-(4-chloro-2-fluoro-phenoxy)-ethoxy]-benzyl}-1-(6-trifluoromethyl-3,4-dihydro-2H-quinolin-1-yl)-propan-1-one hydrochloride], the inhibition at 0.1 µM (compound concentration 0.1 μM) came to 38.9%.

In the case of `Cc1cc(Cl)c(OCCOc2ccc(CC(CN)C(=O)N3CCCc4cc(F)ccc43)cc2)c(Cl)c1` (stereo not drawn) [Example 20, 3-Amino-2-{4-[2-(2,6-dichloro-4-methyl-phenoxy)-ethoxy]-benzyl}-1-(6-fluoro-3,4-dihydro-2H-quinolin-1-yl)-propan-1-one], the inhibition at 1 µM was 96.1%. For the same compound, the inhibition at 0.1 µM (compound concentration 0.1 μM) came to 68%.

Regarding `CC(C)(C)c1ccc2c(c1)CCCN2C(=O)C(CN)Cc1ccc(OCCOc2c(Cl)cccc2Cl)cc1` (stereo not drawn) [Example 53, 3-Amino-1-(6-tert-butyl-3,4-dihydro-2H-quinolin-1-yl)-2-{4-[2-(2,6-dichloro-phenoxy)-ethoxy]-benzyl}-propan-1-one hydrochloride], the inhibition at 0.1 µM (compound concentration 0.1 μM) came out at 93.1%.

For the compound `Cc1cc(Cl)c(OCCOc2ccc(CC(CN)C(=O)N3CCOc4ccccc43)cc2)c(Cl)c1` (stereo not drawn) [Example 4, 3-Amino-2-{4-[2-(2,6-dichloro-4-methyl-phenoxy)-ethoxy]-benzyl}-1-(2,3-dihydro-benzo[1,4]oxazin-4-yl)-propan-1-one], the inhibition at 1 µM was found to be 73.5%.

In the case of `Cc1cc(Cl)c(OCCOc2ccc(CC(CN)C(=O)N3CCOCC3)cc2)c(Cl)c1` (stereo not drawn) [Example 25, 3-Amino-2-{4-[2-(2,6-dichloro-4-methyl-phenoxy)-ethoxy]-benzyl}-1-morpholin-4-yl-propan-1-one hydrochloride], the inhibition at 1 µM worked out at 76.4%. For the setting “compound concentration 0.1 μM”, the inhibition at 0.1 µM was determined as 45.1%.

Take `Cc1ccc(OCCOc2ccc(CC(CN)C(=O)N3CCCc4cc(C(F)(F)F)ccc43)cc2)c(Cl)c1` (stereo not drawn) [Example 33, 3-Amino-2-{4-[2-(2-chloro-4-methyl-phenoxy)-ethoxy]-benzyl}-1-(6-trifluoromethyl-3,4-dihydro-2H-quinolin-1-yl)-propan-1-one]: the inhibition at 1 µM is 89.2%. For the same compound, under “compound concentration 0.1 μM”, the inhibition at 0.1 µM is 92.9%.

Take `COc1cc2c(cc1OC)CN(C(=O)C(CN)Cc1ccc(OCCOc3c(Cl)cc(C)cc3Cl)cc1)CC2` (stereo not drawn) [Example 17, 2-Aminomethyl-3-{4-[2-(2,6-dichloro-4-methyl-phenoxy)-ethoxy]-phenyl}-1-(6,7-dimethoxy-3,4-dihydro-1H-isoquinolin-2-yl)-propan-1-one]: the inhibition at 1 µM was determined as 53.6%.

Regarding `COc1ccc2c(c1)CCCN2C(=O)C(CN)Cc1ccc(OCCOc2c(Cl)cc(C)cc2Cl)cc1` (stereo not drawn) [Example 13, 3-Amino-2-{4-[2-(2,6-dichloro-4-methyl-phenoxy)-ethoxy]-benzyl}-1-(6-methoxy-3,4-dihydro-2H-quinolin-1-yl)-propan-1-one], the inhibition at 1 µM came out at 96.5%. Moreover, the inhibition at 0.1 µM (compound concentration 0.1 μM) was determined as 32.1%.
